Assays:
[1] = biological target: T1, Ephrin type-A receptor 8 (Homo sapiens) (UniProt P29322); assay: Selectivity interaction (Upstate Kinase Profiler service (Millipore)) EUB0000056c EPHA8; conditions: at 1 µM
T1 sequence (whole entry): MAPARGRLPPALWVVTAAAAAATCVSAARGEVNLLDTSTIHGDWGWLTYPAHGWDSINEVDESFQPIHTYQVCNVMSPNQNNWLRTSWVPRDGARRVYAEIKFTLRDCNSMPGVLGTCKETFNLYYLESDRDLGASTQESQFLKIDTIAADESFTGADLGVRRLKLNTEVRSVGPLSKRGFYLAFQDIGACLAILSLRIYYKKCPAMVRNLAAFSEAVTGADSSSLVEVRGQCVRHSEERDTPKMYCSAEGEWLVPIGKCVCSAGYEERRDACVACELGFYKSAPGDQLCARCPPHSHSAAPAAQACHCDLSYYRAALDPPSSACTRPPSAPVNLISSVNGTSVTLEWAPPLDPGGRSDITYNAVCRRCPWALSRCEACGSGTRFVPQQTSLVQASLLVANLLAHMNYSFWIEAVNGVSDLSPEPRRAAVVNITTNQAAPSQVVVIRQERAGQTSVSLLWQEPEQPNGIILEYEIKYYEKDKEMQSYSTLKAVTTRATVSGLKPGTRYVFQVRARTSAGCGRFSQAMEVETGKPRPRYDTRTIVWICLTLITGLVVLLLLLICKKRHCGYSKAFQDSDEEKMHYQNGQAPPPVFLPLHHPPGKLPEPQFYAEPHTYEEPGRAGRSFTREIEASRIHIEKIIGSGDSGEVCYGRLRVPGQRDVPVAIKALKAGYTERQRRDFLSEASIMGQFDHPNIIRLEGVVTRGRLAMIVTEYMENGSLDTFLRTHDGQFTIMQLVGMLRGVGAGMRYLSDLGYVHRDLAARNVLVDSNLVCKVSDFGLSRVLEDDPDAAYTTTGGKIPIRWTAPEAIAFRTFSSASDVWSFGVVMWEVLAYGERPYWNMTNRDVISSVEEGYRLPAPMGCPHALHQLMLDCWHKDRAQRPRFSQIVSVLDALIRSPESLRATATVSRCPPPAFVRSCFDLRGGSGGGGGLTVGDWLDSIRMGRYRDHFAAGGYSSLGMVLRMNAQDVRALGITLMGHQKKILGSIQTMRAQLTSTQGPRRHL

[2] = biological target: Tyrosine-protein kinase HCK (Homo sapiens) (UniProt P08631); assay: Selectivity interaction (ActivX KiNativ screen (kinase selectivity in THP-1 cell lysates)) EUB0000639a HCK; assay type: subcellular; conditions: lysate
Tyrosine-protein kinase HCK (Homo sapiens), sequence (P08631 2-526 limits assumed): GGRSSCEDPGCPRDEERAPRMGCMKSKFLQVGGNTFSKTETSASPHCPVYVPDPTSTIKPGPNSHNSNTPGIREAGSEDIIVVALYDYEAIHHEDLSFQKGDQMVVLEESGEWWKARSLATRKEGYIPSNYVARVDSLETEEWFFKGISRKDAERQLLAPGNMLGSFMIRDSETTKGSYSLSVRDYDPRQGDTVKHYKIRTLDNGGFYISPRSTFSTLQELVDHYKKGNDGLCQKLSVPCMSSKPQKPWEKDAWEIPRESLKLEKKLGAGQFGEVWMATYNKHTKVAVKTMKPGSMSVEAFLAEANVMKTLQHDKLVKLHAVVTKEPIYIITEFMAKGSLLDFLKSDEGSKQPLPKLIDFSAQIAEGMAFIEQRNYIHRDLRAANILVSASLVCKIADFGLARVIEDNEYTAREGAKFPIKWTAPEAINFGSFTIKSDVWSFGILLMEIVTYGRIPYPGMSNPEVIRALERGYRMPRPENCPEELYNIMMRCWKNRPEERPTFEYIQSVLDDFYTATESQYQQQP

[3] = biological target: T2, Serine/threonine-protein kinase Nek1 (Homo sapiens) (UniProt Q96PY6); assay: Selectivity interaction (ActivX KiNativ screen (kinase selectivity in THP-1 cell lysates)) EUB0000639a NEK1; assay type: subcellular; conditions: lysate
T2 sequence (whole entry): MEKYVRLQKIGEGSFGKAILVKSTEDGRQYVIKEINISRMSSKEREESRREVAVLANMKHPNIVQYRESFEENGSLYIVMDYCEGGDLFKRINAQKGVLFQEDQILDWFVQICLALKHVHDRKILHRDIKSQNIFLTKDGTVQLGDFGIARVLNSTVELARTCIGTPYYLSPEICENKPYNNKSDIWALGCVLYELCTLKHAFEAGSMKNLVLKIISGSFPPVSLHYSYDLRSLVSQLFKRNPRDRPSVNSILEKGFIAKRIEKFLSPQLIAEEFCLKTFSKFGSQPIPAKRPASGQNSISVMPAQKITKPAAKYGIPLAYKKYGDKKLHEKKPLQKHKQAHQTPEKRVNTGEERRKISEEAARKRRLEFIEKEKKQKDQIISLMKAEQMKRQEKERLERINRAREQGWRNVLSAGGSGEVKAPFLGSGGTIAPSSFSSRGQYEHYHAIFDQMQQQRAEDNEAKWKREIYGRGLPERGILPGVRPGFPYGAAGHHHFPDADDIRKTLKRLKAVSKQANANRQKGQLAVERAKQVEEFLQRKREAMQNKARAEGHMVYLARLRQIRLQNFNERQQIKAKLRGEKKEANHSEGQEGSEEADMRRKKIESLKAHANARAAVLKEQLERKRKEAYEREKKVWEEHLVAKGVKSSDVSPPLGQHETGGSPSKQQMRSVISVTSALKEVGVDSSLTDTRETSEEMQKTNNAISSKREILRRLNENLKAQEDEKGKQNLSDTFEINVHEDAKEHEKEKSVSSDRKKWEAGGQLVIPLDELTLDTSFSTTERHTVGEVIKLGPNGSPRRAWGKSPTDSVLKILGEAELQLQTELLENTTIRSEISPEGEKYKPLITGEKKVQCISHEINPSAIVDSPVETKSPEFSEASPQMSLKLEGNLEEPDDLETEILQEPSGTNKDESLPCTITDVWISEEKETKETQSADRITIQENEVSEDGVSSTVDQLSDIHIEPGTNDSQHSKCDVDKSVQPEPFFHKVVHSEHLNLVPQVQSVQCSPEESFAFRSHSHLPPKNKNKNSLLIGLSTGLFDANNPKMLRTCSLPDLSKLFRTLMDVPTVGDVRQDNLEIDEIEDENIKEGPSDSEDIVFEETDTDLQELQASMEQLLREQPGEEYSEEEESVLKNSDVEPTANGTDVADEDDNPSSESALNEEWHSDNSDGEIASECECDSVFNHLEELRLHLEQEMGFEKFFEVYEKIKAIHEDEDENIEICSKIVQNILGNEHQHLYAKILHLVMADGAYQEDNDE

Row | % of inhibition [1] [%] | % of inhibition ([2]; at 0.01 µM) [%] | % of inhibition ([2]; at 0.04 µM) [%] | % of inhibition ([2]; at 0.2 µM) [%] | % of inhibition ([2]; at 1 µM) [%] | % of inhibition ([2]; at 5 µM) [%] | % of inhibition ([3]; at 0.01 µM) [%] | % of inhibition ([3]; at 0.04 µM) [%] | % of inhibition ([3]; at 0.2 µM) [%] | % of inhibition ([3]; at 1 µM) [%] | % of inhibition ([3]; at 5 µM) [%] | SMILES
1 | 1 |  |  |  |  |  |  |  |  |  |  | Cc1ccc(-c2ccc3c(ccc4sc5c(c43)NC[C@@H](C)NC5=O)n2)cn1
2 |  | -5.9 | -8.6 | -9.9 | -4.8 | -3.1 | -0.6 | 7 | 14.4 | 4.9 | -6.3 | CC[C@@H]1[C@H](F)C(=O)N[C@@H]1COc1nccc2cc(C(N)=O)c(OC)cc12 [ZIMLOVISERTIB]
